Experimental data reported in patent US20200338064A1, “HIGH CONCENTRATION LOCAL ANESTHETIC FORMULATIONS” (priority 2007, published 2020).

Experiment: Solubility and compatibility of lidocaine and lidocaine HCl at 40% w/w in solvent blends
Format: physicochemical
Conditions: two weeks at accelerated conditions versus initial
Description: The solubility and compatibility of lidocaine and lidocaine HCl in solvents typically used in topical pharmaceutical products was assessed in order to direct the formulation development efforts.
Initially, the solubility of lidocaine and lidocaine hydrochloride was evaluated in single solvents with varying lipophilicity. […] Based on the single solvent data, a compatibility study was initiated to evaluate the chemical stability of the drug at a concentration of 40% w/w in a variety of solvent blends that would form the base of potential prototype gel or cream formulations.

SMILES: CCN(CC)CC(=O)Nc1c(C)cccc1C [lidocaine]
- Physical appearance and chemical compatibility in solvent blends: retained their physical appearance
